In ChEMBL document CHEMBL4402524, “Identification of Novel Resorcinol Amide Derivatives as Potent and Specific Pyruvate Dehydrogenase Kinase (PDHK) Inhibitors” (J Med Chem, 2019):

What was measured:
[1] = target: T1, [Pyruvate dehydrogenase (acetyl-transferring)] kinase isozyme 4, mitochondrial (Homo sapiens, UniProt Q16654); experiment: Inhibition of PDHK4 (unknown origin) by radiometric biochemical kinase assay
[2] = target: T2, [Pyruvate dehydrogenase (acetyl-transferring)] kinase isozyme 2, mitochondrial (Homo sapiens, UniProt Q15119); experiment: Inhibition of PDHK2 (unknown origin) by radiometric biochemical kinase assay
[3] = test system: NCI-H1299; experiment: Antiproliferative activity against p53 deficient human H1299 cells incubated for 72 hrs by CellTiter-Glo assay; format: functional; conditions: NCI-H1299, 72 h
[4] = target: [Pyruvate dehydrogenase (acetyl-transferring)] kinase isozyme 1, mitochondrial (Homo sapiens, UniProt Q15118); experiment: Inhibition of PDHK1 (unknown origin) by radiometric biochemical kinase assay
[5] = target: [Pyruvate dehydrogenase (acetyl-transferring)] kinase isozyme 3, mitochondrial (Homo sapiens, UniProt Q15120); experiment: Inhibition of PDHK3 (unknown origin) by radiometric biochemical kinase assay
[6] = test system: DU-145; experiment: Antiproliferative activity against p53 deficient human DU145 cells incubated for 72 hrs by CellTiter-Glo assay; format: functional; conditions: DU-145, 72 h
[7] = target: T2, [Pyruvate dehydrogenase (acetyl-transferring)] kinase isozyme 2, mitochondrial; experiment: Inhibition of PDHK2 (unknown origin) assessed as reduction in NAD measured for 30 mins
[8] = target: Cytochrome P450 2C19 (Homo sapiens, UniProt P33261); experiment: Inhibition of CYP2C19 (unknown origin); format: ADME
[9] = test system: DU-145; experiment: Induction of apoptosis in human DU145 cells assessed as increase in apoptotic cells at 30 uM incubated for 48 hrs by FITC Annexin-V and PI staining based flow cytometric analysis relative to control; format: functional
[10] = test system: NCI-H1299; experiment: Induction of apoptosis in human H1299 cells assessed as increase in apoptotic cells at 30 uM incubated for 48 hrs by FITC Annexin-V and PI staining based flow cytometric analysis relative to control; format: functional
[11] = test system: NCI-H1299; experiment: Antiproliferative activity against PDHK1/2 double knockdown human H1299 cells transfected with PDHK1/2 siRNA at 10 uM incubated for 48 hrs by CellTiter-Glo assay relative to control; format: functional
[12] = test system: NCI-H1299; experiment: Synergistic antiproliferative activity against human H1299 cells at 20 uM incubated for 72 hrs in presence of satra-platin by CellTiter-Glo assay relative to control; format: functional; conditions: NCI-H1299, 72 h
[13] = target: Cytochrome P450 2D6 (Homo sapiens, UniProt P10635); experiment: Inhibition of CYP2D6 (unknown origin); format: ADME
[14] = test system: NCI-H1299; experiment: Synergistic induction of apoptosis in human H1299 cells assessed as increase in apoptotic cells at 10 uM incubated for 48 hrs in presence of satra-platin by FITC Annexin-V and PI staining based flow cytometric analysis relative to control; format: functional
[15] = target: T1, [Pyruvate dehydrogenase (acetyl-transferring)] kinase isozyme 4, mitochondrial; experiment: Inhibition of PDHK4 (unknown origin) assessed as reduction in NAD measured for 30 mins
[16] = test system: NCI-H1299; experiment: Antiproliferative activity against human H1299 cells transfected with control siRNA at 10 uM incubated for 48 hrs in by CellTiter-Glo assay relative to control; format: functional
[17] = target: Cytochrome P450 2C9 (Homo sapiens, UniProt P11712); experiment: Inhibition of CYP2C9 (unknown origin); format: ADME
[18] = target: T3, Cytochrome P450 1A2 (Homo sapiens, UniProt P05177); experiment: Inhibition of CYP1A2 (unknown origin); format: ADME
T3 sequence (P05177 whole entry): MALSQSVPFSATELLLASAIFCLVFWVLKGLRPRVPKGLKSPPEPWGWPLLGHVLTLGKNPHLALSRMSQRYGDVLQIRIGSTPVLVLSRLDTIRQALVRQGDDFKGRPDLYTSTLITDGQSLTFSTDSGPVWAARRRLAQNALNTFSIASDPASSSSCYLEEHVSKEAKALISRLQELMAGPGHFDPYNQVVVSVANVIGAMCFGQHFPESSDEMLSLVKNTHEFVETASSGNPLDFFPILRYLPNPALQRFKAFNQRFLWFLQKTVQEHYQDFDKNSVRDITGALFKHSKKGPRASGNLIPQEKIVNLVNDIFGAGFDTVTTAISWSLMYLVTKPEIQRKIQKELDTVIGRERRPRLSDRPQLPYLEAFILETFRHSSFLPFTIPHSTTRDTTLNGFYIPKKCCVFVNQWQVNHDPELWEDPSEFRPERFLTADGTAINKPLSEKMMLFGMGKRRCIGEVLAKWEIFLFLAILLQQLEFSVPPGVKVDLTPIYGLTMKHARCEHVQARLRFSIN

[19] = target: Cytochrome P450 3A4 (Homo sapiens, UniProt P08684); experiment: Inhibition of CYP3A4 (unknown origin); format: ADME
[20] = target: Heat shock protein HSP90 (Homo sapiens, UniProt P07900+P08238); experiment: Inhibition of HSP90 (unknown origin); format: protein assay
[21] = test system: NCI-H1299; experiment: Inhibition of anchorage-independent colony formation in human H1299 cells at 20 uM incubated for 14 days by p iodonitrotetrazolium violet staining based method relative to control; format: functional; conditions: NCI-H1299, 336 h
[22] = test system: NCI-H1299; experiment: Antiproliferative activity against p53 deficient human H1299 cells at 20 uM incubated for 72 hrs by CellTiter-Glo assay relative to control; format: functional

T1 sequence (Q16654 whole entry): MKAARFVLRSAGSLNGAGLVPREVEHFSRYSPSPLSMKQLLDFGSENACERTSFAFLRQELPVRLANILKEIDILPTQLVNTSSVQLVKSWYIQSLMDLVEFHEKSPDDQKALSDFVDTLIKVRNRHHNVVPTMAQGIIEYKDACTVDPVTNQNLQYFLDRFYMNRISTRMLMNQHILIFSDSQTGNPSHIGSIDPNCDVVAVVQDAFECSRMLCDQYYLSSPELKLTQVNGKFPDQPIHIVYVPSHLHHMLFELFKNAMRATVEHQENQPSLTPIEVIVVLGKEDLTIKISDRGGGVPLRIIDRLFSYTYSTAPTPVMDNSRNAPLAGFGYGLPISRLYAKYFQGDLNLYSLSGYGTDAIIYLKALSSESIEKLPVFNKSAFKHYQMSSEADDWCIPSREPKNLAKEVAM
Cytochrome P450 2C9, sequence (P11712 whole entry): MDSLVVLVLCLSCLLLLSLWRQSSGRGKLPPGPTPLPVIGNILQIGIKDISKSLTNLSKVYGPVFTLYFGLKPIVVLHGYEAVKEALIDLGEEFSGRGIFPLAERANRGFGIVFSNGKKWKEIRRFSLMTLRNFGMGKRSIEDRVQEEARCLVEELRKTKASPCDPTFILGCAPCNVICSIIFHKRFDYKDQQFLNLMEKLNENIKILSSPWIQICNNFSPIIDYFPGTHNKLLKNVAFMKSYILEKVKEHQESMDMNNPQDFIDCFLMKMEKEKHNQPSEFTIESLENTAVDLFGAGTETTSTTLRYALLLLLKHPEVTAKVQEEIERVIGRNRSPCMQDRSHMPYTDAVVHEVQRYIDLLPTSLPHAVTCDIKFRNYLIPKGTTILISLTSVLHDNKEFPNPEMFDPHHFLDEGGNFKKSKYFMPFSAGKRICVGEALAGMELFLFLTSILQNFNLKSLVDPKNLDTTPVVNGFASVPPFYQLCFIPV
Cytochrome P450 3A4, sequence (P08684 whole entry): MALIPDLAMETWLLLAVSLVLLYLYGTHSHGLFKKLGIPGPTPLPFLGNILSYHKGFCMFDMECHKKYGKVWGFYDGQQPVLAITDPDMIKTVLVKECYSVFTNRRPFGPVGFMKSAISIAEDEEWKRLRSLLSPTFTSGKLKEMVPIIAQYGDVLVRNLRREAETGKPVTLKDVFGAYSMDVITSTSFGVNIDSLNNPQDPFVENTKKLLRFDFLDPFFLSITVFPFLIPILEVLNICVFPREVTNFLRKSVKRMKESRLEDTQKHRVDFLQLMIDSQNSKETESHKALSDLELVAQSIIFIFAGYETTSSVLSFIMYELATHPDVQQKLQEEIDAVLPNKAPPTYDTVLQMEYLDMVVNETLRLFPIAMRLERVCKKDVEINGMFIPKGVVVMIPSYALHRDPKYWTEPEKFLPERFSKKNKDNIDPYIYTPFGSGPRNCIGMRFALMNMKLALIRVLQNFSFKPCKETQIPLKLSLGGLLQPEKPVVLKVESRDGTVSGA
[Pyruvate dehydrogenase (acetyl-transferring)] kinase isozyme 1, mitochondrial, sequence (Q15118 whole entry): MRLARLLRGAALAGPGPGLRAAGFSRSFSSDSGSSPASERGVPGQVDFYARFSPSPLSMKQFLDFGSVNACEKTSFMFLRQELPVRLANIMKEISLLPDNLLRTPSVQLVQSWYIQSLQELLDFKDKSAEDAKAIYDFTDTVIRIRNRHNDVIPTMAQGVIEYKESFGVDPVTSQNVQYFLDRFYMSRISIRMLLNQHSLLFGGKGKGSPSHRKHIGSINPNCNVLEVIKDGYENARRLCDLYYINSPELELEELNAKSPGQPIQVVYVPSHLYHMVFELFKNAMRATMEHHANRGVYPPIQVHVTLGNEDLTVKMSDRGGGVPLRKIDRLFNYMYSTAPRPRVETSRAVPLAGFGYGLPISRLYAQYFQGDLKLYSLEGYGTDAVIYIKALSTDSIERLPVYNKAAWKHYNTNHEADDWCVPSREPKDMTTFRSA
Cytochrome P450 2C19, sequence (P33261 whole entry): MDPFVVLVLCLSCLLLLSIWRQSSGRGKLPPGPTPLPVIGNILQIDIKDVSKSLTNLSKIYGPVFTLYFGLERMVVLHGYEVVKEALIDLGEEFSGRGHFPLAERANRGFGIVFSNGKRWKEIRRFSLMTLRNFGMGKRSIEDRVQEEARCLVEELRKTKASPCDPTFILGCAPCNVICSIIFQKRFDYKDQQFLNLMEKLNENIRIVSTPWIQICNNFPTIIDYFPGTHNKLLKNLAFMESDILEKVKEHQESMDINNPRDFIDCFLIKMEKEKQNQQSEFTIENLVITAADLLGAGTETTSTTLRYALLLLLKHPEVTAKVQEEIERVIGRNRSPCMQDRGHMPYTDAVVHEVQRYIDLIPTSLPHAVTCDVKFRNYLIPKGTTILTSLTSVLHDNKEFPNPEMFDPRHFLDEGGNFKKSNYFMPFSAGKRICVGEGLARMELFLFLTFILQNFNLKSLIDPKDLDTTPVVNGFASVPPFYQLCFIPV
Cytochrome P450 2D6, sequence (P10635 whole entry): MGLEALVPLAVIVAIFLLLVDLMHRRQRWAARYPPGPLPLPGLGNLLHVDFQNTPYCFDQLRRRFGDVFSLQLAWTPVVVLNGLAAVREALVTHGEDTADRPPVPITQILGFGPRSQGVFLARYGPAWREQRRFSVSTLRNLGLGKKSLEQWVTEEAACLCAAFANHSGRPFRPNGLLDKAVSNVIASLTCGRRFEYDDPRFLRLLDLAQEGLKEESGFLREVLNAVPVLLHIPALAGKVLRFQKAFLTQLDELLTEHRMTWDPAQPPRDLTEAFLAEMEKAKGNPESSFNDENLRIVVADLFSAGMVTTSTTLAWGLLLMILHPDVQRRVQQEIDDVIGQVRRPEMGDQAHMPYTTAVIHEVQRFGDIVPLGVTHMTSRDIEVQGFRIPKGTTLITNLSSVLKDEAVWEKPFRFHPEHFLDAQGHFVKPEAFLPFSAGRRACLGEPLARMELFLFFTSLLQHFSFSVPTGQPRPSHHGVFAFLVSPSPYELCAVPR
[Pyruvate dehydrogenase (acetyl-transferring)] kinase isozyme 3, mitochondrial, sequence (Q15120 whole entry): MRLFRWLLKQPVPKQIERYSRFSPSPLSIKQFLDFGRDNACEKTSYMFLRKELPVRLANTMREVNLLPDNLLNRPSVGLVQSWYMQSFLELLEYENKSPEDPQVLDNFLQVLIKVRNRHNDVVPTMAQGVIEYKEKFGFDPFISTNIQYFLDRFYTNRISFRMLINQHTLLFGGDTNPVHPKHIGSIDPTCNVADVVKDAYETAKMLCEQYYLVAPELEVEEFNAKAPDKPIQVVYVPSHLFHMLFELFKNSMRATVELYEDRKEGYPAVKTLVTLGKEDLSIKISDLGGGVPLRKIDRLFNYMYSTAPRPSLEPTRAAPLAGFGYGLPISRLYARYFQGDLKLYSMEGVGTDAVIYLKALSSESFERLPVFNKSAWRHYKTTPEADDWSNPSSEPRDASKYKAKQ

| IC50 [1] [nM] | IC50 [2] [nM] | GI50 [3] [nM] | IC50 [4] [nM] | IC50 [5] [nM] | GI50 [6] [nM] | Structure (SMILES) | further results |
| --- | --- | --- | --- | --- | --- | --- | --- |
| 7840 | 8590 | – | – | – | – | CNC(=O)c1ccc(N(Cc2ccc(NC(C)=O)cc2)C(=O)c2ccc(O)cc2O)cc1 | – |
| 89 | 95 | 107000 | 57 | 98 | 59800 | CN(C)C(=O)c1ccc(N(Cc2ccc(C#N)s2)C(=O)c2ccc(O)cc2O)cc1 | – |
| 1810 | 1660 | – | – | – | – | CC(=O)Nc1ccc(CN(C(=O)c2ccc(O)cc2O)c2ccc(C(=O)N3CCCC3)cc2)cc1 | – |
| 775 | 184 | – | 140 | 858 | – | CN(C)C(=O)c1ccc(N(CC2CCCCC2)C(=O)c2ccc(O)cc2O)cc1 | – |
| > 10000 | > 10000 | – | – | – | – | CN(C)C(=O)c1ccc(N(Cc2ccc(F)cc2)C(=O)c2ccccc2O)cc1 | – |
| 1980 | 1620 | – | – | – | – | CC(=O)Nc1ccc(CN(C(=O)c2ccc(O)cc2O)c2ccc(C(=O)N3CCCCC3)cc2)cc1 | – |
| 87 | 132 | 32200 | 24 | 90 | 18900 | CN(C)C(=O)c1ccc(N(Cc2cnc(Br)s2)C(=O)c2ccc(O)cc2O)cc1 | – |
| 99 | 110 | 97100 | – | – | 44500 | CN(C)C(=O)c1ccc(N(Cc2ccc([N+](=O)[O-])cc2)C(=O)c2ccc(O)cc2O)cc1 | – |
| 8 | 18 | 49800 | 42 | 90 | 42200 | CN(C)C(=O)c1ccc(N(Cc2ccc(Br)s2)C(=O)c2ccc(O)cc2O)cc1 | – |
| 5330 | 772 | – | – | – | – | CN(C)C(=O)c1ccc(N(CC(C)(C)C)C(=O)c2ccc(O)cc2O)cc1 | – |
| 14800 | 1960 | – | – | – | – | CC(=O)Nc1ccc(CN(C(=O)c2ccc(O)cc2O)c2ccc(C(=O)NC3CC3)cc2)cc1 | – |
| 13 | 10 | 13400 | 36 | 59 | 10200 | CN(C)C(=O)c1ccc(N(Cc2ccc(Br)o2)C(=O)c2ccc(O)cc2O)cc1 | IC50 [7]: 2090 nM; IC50 [8]: 4300 nM; Activity [9]: 60%; Activity [10]: 24.8%; Activity [11]: 32%; GI50 [12]: 5500 nM; IC50 [13]: > 20000 nM; Activity [14]: 30 - 34%; IC50 [15]: 310 nM; Activity [16]: 50%; IC50 [17]: > 20000 nM; IC50 [18]: > 20000 nM; IC50 [19]: 1400 nM; IC50 [20]: 830 nM; inhibition at 20 µM [21]: 100%; Activity [22]: 70% |
| 5790 | 2660 | – | – | – | – | CC(=O)Nc1ccc(CN(C(=O)c2ccc(O)cc2O)c2ccc(C(=O)N3CCOCC3)cc2)cc1 | – |
| 11 | 98 | 39200 | 14 | 5 | 15900 | CN(C)C(=O)c1ccc(N(Cc2ccc(I)o2)C(=O)c2ccc(O)cc2O)cc1 | – |
| 311 | 503 | – | – | – | – | CC(=O)Nc1ccc(CN(C(=O)c2ccc(O)cc2O)c2ccc(C(=O)N(C)C)cc2)cc1 | – |
| – | – | > 50000 | – | – | > 50000 | Cc1cnc(Cl)nc1-c1ccc(N(Cc2ccc(CNC(=O)C(F)F)cc2)C(=O)c2ccc(O)cc2O)cc1 | IC50 [20]: > 10000 nM |

| IC50 [1] [nM] | IC50 [2] [nM] | GI50 [3] [nM] | IC50 [4] [nM] | IC50 [5] [nM] | GI50 [6] [nM] | Structure (SMILES) | further results |
| --- | --- | --- | --- | --- | --- | --- | --- |
| – | – | – | – | – | – | O=C(O)C(Cl)Cl [DICHLOROACETIC ACID] | GI50 [12]: 8500 nM |
| 34 | 150 | 4900 | 113 | 136 | 3500 | CN(C)C(=O)c1ccc(N(Cc2ccc(O)cc2)C(=O)c2ccc(O)cc2O)cc1 | IC50 [7]: 1460 nM; IC50 [8]: > 20000 nM; IC50 [13]: > 20000 nM; IC50 [15]: 1310 nM; IC50 [17]: 13400 nM; IC50 [18]: > 20000 nM; IC50 [19]: 6470 nM; IC50 [20]: > 10000 nM |
| 5 | 8 | 51600 | 9 | 80 | 41900 | CN(C)C(=O)c1ccc(N(Cc2cc(Br)cs2)C(=O)c2ccc(O)cc2O)cc1 | IC50 [8]: 7800 nM; IC50 [13]: > 20000 nM; IC50 [17]: 18000 nM; IC50 [18]: > 20000 nM; IC50 [19]: < 1000 nM; IC50 [20]: 5790 nM |
| 4670 | 7220 | – | – | – | – | CC(=O)Nc1ccc(CN(C(=O)c2ccc(O)cc2O)c2ccc(C(=O)O)cc2)cc1 | – |
| 273 | 140 | – | – | – | – | CN(C)C(=O)c1ccc(N(Cc2ccc(C(F)(F)F)cc2)C(=O)c2ccc(O)cc2O)cc1 | – |
| 399 | 302 | – | 151 | 461 | – | CN(C)C(=O)c1ccc(N(Cc2ccc(C#N)cc2)C(=O)c2ccc(O)cc2O)cc1 | – |
| 234 | 373 | – | – | – | – | CN(C)C(=O)c1ccc(N(Cc2ccc3ccccc3c2)C(=O)c2ccc(O)cc2O)cc1 | – |
| 52 | 113 | 57100 | 67 | 142 | 69700 | CN(C)C(=O)c1ccc(N(Cc2ccc(F)cc2)C(=O)c2ccc(O)cc2O)cc1 | IC50 [20]: 5200 nM |
| 66 | 206 | – | 109 | – | – | CN(C)C(=O)c1ccc(N(Cc2ccccc2)C(=O)c2ccc(O)cc2O)cc1 | – |
| 69 | 133 | 7800 | 48 | 67 | 9000 | CN(C)C(=O)c1ccc(N(Cc2ccco2)C(=O)c2ccc(O)cc2O)cc1 | IC50 [7]: 1090 nM; IC50 [15]: 580 nM; IC50 [20]: 770 nM |
| 52 | 252 | – | 20 | 255 | – | Cc1ccc(CN(C(=O)c2ccc(O)cc2O)c2ccc(C(=O)N(C)C)cc2)o1 | – |
| 169 | 126 | 31500 | – | – | 51000 | CN(C)C(=O)c1ccc(N(Cc2ccc(Cl)cc2)C(=O)c2ccc(O)cc2O)cc1 | – |
| 82 | 193 | 30000 | 24 | 181 | 29900 | CN(C)C(=O)c1ccc(N(Cc2ccc(Cl)o2)C(=O)c2ccc(O)cc2O)cc1 | – |
| 12300 | 9910 | – | – | – | – | CC(=O)Nc1ccc(CN(C(=O)c2ccc(O)cc2O)c2ccc(C(=O)NCCO)cc2)cc1 | – |
| 390 | 2040 | – | – | – | – | CN(C)C(=O)c1ccc(N(Cc2ccc(F)cc2)C(=O)c2ccc(O)cc2)cc1 | – |
| 20 | 64 | 60200 | 20 | 64 | 40800 | CN(C)C(=O)c1ccc(N(Cc2ncc(Br)s2)C(=O)c2ccc(O)cc2O)cc1 | IC50 [20]: 6000 nM |
